Article doi:10.1101/2021.07.22.453354v1 (biorxiv, 2021)

Target: ΔNFun30 (printed ⊗NFun30), Fun30 from C. albicans, orf19.6291 (Candida albicans, UniProt A0A1D8PTJ0)
Assay: biochemical

`Nc1ncnc2c1ncn2[C@@H]1O[C@H](COP(=O)(O)OP(=O)(O)OP(=O)(O)O)[C@@H](O)[C@H]1O` [ATP] showed a Kd of 1.32 ± 0.03 µM.
